Results from publication PMC7115494 (European Journal of Medicinal Chemistry, 2012).

Tests used:
[1] = system: HEL cells; assay: Cytotoxicity in HEL cells: cell morphology; format: cell-based, human; details: microscopically detectable alteration of cell morphology
[2] = system: herpesviruses and poxviruses; details: for Activity against herpesviruses and poxviruses: in vitro
[3] = system: herpesviruses and poxviruses; details: EC50 in the μM range; cited from earlier work
[4] = system: VZV TK+ strain Oka; assay: microbe, parasite or virus in culture; format: cell-based, varicella-zoster virus; details: Human alphaherpesvirus 3, Fibroblast, read-out: EC50 VZV TK+ strain Oka
[5] = system: Vaccinia virus Lederle strain; assay: microbe, parasite or virus in culture; format: cell-based
[6] = system: VZV TK+ strain YS; format: cell-based, varicella-zoster virus; details: HEL fibroblasts
[7] = system: VZV; assay: Antiviral activity against VZV, strains summarised in text; format: cell-based, varicella-zoster virus; details: for EC50: Human alphaherpesvirus 3, read-out: EC50 VZV, range over strains
[8] = system: HSV; assay: Antiviral activity against HSV, strains summarised in text; format: cell-based, herpes simplex virus; details: for EC50: read-out: EC50 HSV, range over strains
[9] = system: HCMV; assay: Antiviral activity against HCMV, strains summarised in text; format: cell-based, human cytomegalovirus; details: for EC50: Human betaherpesvirus 5, read-out: EC50 HCMV, range over strains
[10] = system: VZV TK- strain YS/R; format: cell-based, varicella-zoster virus; details: HEL fibroblasts
[11] = system: Feline herpesvirus; assay: Antiviral activity against feline herpesvirus in CRFK cells; format: cell-based

Nc1nc2c(ncn2C[C@H]2COP(=O)(O)CO2)c(=O)[nH]1 [(S)-cHPMPG, reference compound]
Cytotoxicity in HEL cells, cell morphology, MCC (minimum cytotoxic concentration) [1]: >100 μM

Nc1nc2c(ncn2COCCO)c(=O)[nH]1 [Acyclovir, reference compound]
Cytotoxicity in HEL cells, cell morphology, MCC (minimum cytotoxic concentration) [1]: >444 μM

CCCCCCCCCCCCCCCCOCCCOP(=O)(CO[C@H](CO)Cn1cnc2c(=O)[nH]cnc21)OCCCOCCCCCCCCCCCCCCCC [Compound 13, Bis 3-(hexadecyloxypropyl) ester of 9-(S)-[3-hydroxy-2-(phosphonomethoxy)propyl]hypoxanthine]
Cytotoxicity in HEL cells, cell morphology, MCC (minimum cytotoxic concentration) [1]: ≥23 μM | Activity against herpesviruses and poxviruses [2]: totally inactive

CCCCCCCCCCCCCCCCOCCCOP(=O)(O)CO[C@H](CO)Cn1cnc2c(=O)[nH]cnc21 [Compound 15, 3-(Hexadecyloxypropyl) ester of 9-(S)-[3-hydroxy-2-(phosphonomethoxy)propyl]hypoxanthine]
Cytotoxicity in HEL cells, cell morphology, MCC (minimum cytotoxic concentration) [1]: ≥34 μM | Activity against herpesviruses and poxviruses [2]: totally inactive

Nc1nc2c(ncn2C[C@@H](CO)OCP(=O)(O)O)c(=O)[nH]1 [(S)-HPMPG, 9-(S)-[3-hydroxy-2-(phosphonomethoxy)propyl]guanine, reference compound]
Cytotoxicity in HEL cells, cell morphology, MCC (minimum cytotoxic concentration) [1]: >100 μM | Reported activity against HSV-1, HSV-2, VZV, CMV and vaccinia virus [3]: active

O=c1[nH]c(=O)n([C@H]2C[C@H](O)[C@@H](CO)O2)cc1/C=C/Br [Brivudin, reference compound]
EC50 [4]: 10 ± 10 nM | EC50 ([5]; Orthopoxvirus vaccinia, Fibroblast, read-out: EC50 Vaccinia virus Lederle): 15000 ± 17000 nM | Cytotoxicity in HEL cells, cell morphology, MCC (minimum cytotoxic concentration) [1]: >300 μM

CCCCCCCCCCCCCCCCOCCCOP1(=O)CO[C@@H](Cn2cnc3c(=O)[nH]c(N)nc32)CO1 (stereo partly drawn) [Compound 18, 3-(Hexadecyloxypropyl) ester of 9-{[(5S)-2-hydroxy-2-oxido-1,4,2-dioxaphosphinan-5-yl]methyl}guanine]
Selectivity index (ratio CC50 to EC50) VZV YS [6]: 19,000 | Cytotoxicity in HEL cells, cell morphology, MCC (minimum cytotoxic concentration) [1]: ≥171.3 μM | EC50 [7]: 1 to 2.5 nM | Selectivity index VZV, range over strains ([7]; ratio CC50 to EC50): 2700–19,000 | Selectivity index HSV, range over strains ([8]; ratio CC50 to EC50): 211–559 | EC50 [8]: 7 to 90 nM | EC50 [9]: 2 to 7 nM | Selectivity index HCMV, range over strains ([9]; ratio CC50 to EC50): 3800–9500

CCCCCCCCCCCCCCCCOCCCOP1(=O)CO[C@@H](Cn2cnc3c(=O)[nH]cnc32)CO1 (stereo partly drawn) [Compound 17, 3-(Hexadecyloxypropyl) ester of 9-{[(5S)-2-hydroxy-2-oxido-1,4,2-dioxaphosphinan-5-yl]methyl}hypoxanthine]
Cytotoxicity in HEL cells, cell morphology, MCC (minimum cytotoxic concentration) [1]: ≥7 μM | Activity against herpesviruses and poxviruses [2]: totally inactive

CCCCCCCCCCCCCCCCOCCCOP(=O)(CO[C@H](CO)Cn1cnc2c(=O)[nH]c(N)nc21)OCCCOCCCCCCCCCCCCCCCC [Compound 14, Bis 3-(hexadecyloxypropyl) ester of 9-(S)-[3-hydroxy-2-(phosphonomethoxy)propyl]guanine]
Selectivity index (ratio CC50 to EC50) VZV YS/R [10]: >57 | Fold difference of EC50 versus parent compound (S)-HPMPG, feline herpesvirus ([11]; printed as lower than parent): 157 fold | Fold difference of EC50 versus parent compound (S)-HPMPG, VACV [5]: 41 fold | Cytotoxicity in HEL cells, cell morphology, MCC (minimum cytotoxic concentration) [1]: ≥22.6 μM | Fold difference of EC50 versus parent compound (S)-HPMPG, VZV ([7]; printed as lower than parent): 7 fold | Fold difference of EC50 versus parent compound (S)-HPMPG, HSV ([8]; printed as lower than parent): 15- to 40 fold | Fold difference of EC50 versus parent compound (S)-HPMPG, HCMV ([9]; printed as lower than parent): 7 fold

Nc1nc(O)c2ncn(COC(CO)CO)c2n1 [Ganciclovir, reference compound]
Cytotoxicity in HEL cells, cell morphology, MCC (minimum cytotoxic concentration) [1]: >394 μM

CCCCCCCCCCCCCCCCOCCCOP(=O)(O)CO[C@H](CO)Cn1cnc2c(=O)[nH]c(N)nc21 [Compound 16, 3-(Hexadecyloxypropyl) ester of 9-(S)-[3-hydroxy-2-(phosphonomethoxy)propyl]guanine]
Activity against feline herpesvirus ([11]; CRFK cells): inactive | Cytotoxicity in HEL cells, cell morphology, MCC (minimum cytotoxic concentration) [1]: ≥1.3 μM | EC50 [7]: 1 to 2.5 nM | EC50 [8]: 7 to 90 nM | EC50 [9]: 2 to 7 nM | SIs fold lower compared to compound 18 ([2]; across viruses): 2- to 66 fold

CCCCCCCCCCCCCCCCOCCCOP(=O)(CCOCCn1cnc2c(=O)[nH]cnc21)OCCCOCCCCCCCCCCCCCCCC [Compound 3, Bis 3-(hexadecyloxypropyl) ester of 9-[2-(phosphonomethoxy)ethyl]hypoxanthine]
Cytotoxicity in HEL cells, cell morphology, MCC (minimum cytotoxic concentration) [1]: ≥117 μM | Activity against herpesviruses and poxviruses [2]: inactive

Nc1ccn(C[C@@H](CO)OCP(=O)(O)O)c(=O)n1.O.O [Cidofovir, reference compound]
Cytotoxicity in HEL cells, cell morphology, MCC (minimum cytotoxic concentration) [1]: >317 μM
